From PMC11820736, “Design, Synthesis, and Anti-Tyrosinase, Anti-Melanogenic, and Antioxidant Activities of Novel (Z)-3-Benzyl-5-Benzylidene-2-Thioxothiazolidin-4-One Analogs” (Molecules, 2025)
“Also recorded” adds a separate entry of the source.

Columns and labels:
[1] = DPPH radical-scavenging activity; conditions: 500 μM, 30 min in the dark
Procedure: For measuring the scavenging effect of analogs 1–12 on DPPH radicals, test samples (analogs 1–12 and ascorbic acid [positive reference standard]; final concentration: 500 μM) were mixed with a DPPH solution, and absorbance was measured at 517 nm after storing for 30 min in the dark to determine % DPPH radical-scavenging ability.
L-Ascorbic acid was used as a positive control. Test samples (analogs 1–12 and L-ascorbic acid; 5 mM, 20 μL) dissolved in DMSO were added to each well of a 96-well plate containing the DPPH methanol solution (0.2 mM, 180 μL), and the plate was placed in the dark at 20 °C for 30 min. The absorbance was recorded at 517 nm using a VE microplate reader to calculate DPPH radical-scavenging activity.

mushroom tyrosinase = mushroom tyrosinase (Agaricus bisporus, UniProt C7FF04); assay: Mushroom tyrosinase inhibition assay (dopachrome, 475 nm); assay type: biochemical; conditions: substrate L-tyrosine
Procedure: The plate was placed at 37 °C for 30 min, and well absorbance was measured at 475 nm to determine the generated dopachrome amounts in each well using a VersaMax® Elisa (VE) microplate reader (Molecular Devices, San Jose, CA, USA).

B16F10 cells [2] = assay: Cytotoxicity assay on B16F10 murine melanoma cells (EZ-Cytox); assay type: cell-based; conditions: 1, 2, 5 and 10 μM, 72 h
Procedure: Cell viability for analogs 1–3 was examined on B16F10 cells at 1, 2, 5, and 10 μM concentrations for 72 h.
The influence of (Z)-BBTT analogs 1–3 on B16F10 cell viability was studied using an EZ-Cytox solution (EZ-1000®, DoGenBio, Seoul, Republic of Korea). B16F10 cells were seeded at a density of 1 × 10^3 in each well of a 96-well plate, and the plate was cultivated under normal cell culture conditions for 24 h. Analogs were added to each well at concentrations of 0, 1, 2, 5, and 10 μM, and then cells were cultivated for 72 h under normal cell culture conditions. An aliquot (10 μL) of the EZ-Cytox solution was added to each well and cultivated for 2 h. Well absorbance was recorded at 450 nm using a VE microplate reader to calculate cell viability.

B16F10 cells [3] = assay: Cellular melanin level measurement in B16F10 cells; assay type: cell-based, murine; conditions: 72 h; for effect on stimulator-induced increase in melanin contents: 2, 5 and 10 μM, concentration-dependent
Procedure: Stimulators comprising 1 μM α-melanocyte-stimulating hormone (α-MSH) and 200 μM 3-isobutyl-1-methylxanthine (IBMX) were administered 1 h after test sample treatment. The effects of analogs 1 and 3 on melanin production were determined by measuring the optical density at 405 nm after 72 h of treatment.
B16F10 cells were seeded at a density of 5000 per well of a 6-well plate, and the plate was cultivated under normal cell culture conditions for 24 h. […] In addition, 200 μM IBMX and 1 μM α-MSH (Alomone Labs™, Jerusalem, Israel) were added to each well and cultivated for 72 h under the normal cell culture conditions. To determine the cellular melanin levels, 1N–NaOH solution (100 μL) was added to each well and then kept at 60 °C for 1 h to lyse the cells. The cell lysates were washed twice with phosphate-buffered saline (PBS) and transferred to a 96-well plate, and the absorbance was recorded at 405 nm using a VE microplate reader to determine the cellular melanin content.

[4] = biological target: T1, B16F10 cellular tyrosinase (Mus musculus, UniProt P11344); assay: Cellular tyrosinase activity measurement in B16F10 cells; assay type: cell-based, murine; conditions: α-MSH + IBMX, 72 h; for inhibition of cellular tyrosinase activity compared with kojic acid: 10 μM; for effect on stimulator-enhanced cellular tyrosinase activity: 2, 5 and 10 μM, concentration-dependent
T1 construct: endogenous in cells; host or cells: B16F10 murine melanoma cells stimulated with α-MSH and IBMX
T1 sequence (P11344 19-533): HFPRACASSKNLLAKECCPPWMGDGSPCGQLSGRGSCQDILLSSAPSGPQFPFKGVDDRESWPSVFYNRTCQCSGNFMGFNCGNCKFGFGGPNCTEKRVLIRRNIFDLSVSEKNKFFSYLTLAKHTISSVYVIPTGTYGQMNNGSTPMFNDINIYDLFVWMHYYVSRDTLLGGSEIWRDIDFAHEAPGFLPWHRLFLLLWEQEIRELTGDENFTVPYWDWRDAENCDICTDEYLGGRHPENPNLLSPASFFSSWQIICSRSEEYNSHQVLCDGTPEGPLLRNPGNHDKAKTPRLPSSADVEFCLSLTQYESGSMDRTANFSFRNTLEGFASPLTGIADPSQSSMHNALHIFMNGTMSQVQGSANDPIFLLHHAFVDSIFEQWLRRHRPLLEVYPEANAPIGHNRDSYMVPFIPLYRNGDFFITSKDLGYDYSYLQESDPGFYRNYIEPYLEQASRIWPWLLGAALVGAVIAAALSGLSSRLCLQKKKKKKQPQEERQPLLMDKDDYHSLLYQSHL
Procedure: The cellular tyrosinase inhibitory activity of the test samples was determined by measuring their optical density at 475 nm 72 h after test sample treatment.
B16F10 cells were seeded at a density of 5000 per well of a 6-well plate, and the plate was cultivated under normal cell culture conditions for 24 h. […] Stimulators (200 μM IBMX and 1 μM α-MSH) were added to each well and cultivated for 72 h under normal cell culture conditions. To determine cellular tyrosinase activity, the cells were washed twice with PBS, treated with lysis buffer solution (100 μL) comprising 50 mM phosphate buffer (pH 6.5) (90 μL), 2 mM phenylmethanesulfonyl fluoride (5 μL), and 20% Triton X-100 (5 μL), and incubated at −80 °C for 30 min. After centrifugation (10,000× g, 4 °C, and 10 min), the supernatants (80 μL each) were transferred to each well of a 96-well plate, then 10 mM L-DOPA (20 μL) was added to each well. The absorbance was measured at 475 nm at 1 min intervals for 10 min using a VE microplate reader to determine cellular tyrosinase activity.

B16F10 cell tyrosinase = biological target: T2, B16F10 cell tyrosinase (Mus musculus, UniProt P11344); assay: In situ cellular tyrosinase activity in B16F10 cells (L-DOPA staining); assay type: cell-based, murine; conditions: for relative dark area of cells compared with kojic acid at the same concentration: 10 μM, L-DOPA staining; for number of cells strongly stained with melanin: kojic acid 10 μM, analogs 2, 5 and 10 μM, α-MSH + IBMX, 72 h
T2 construct: endogenous in cells; host or cells: B16F10 murine melanoma cells stimulated with α-MSH and IBMX
T2 sequence (P11344 19-533): T1 sequence (P11344 19-533)
Procedure: To identify the in situ cellular tyrosinase inhibitory activity of analogs 1 and 3, B16F10 cells and L-DOPA were used as the experimental target cells and substrate for melanin synthesis, respectively. […] B16F10 cells were photographed after 2 h of treatment with excess L-DOPA, and the darkness of the cells was measured using the CS analyzer program (ATTO, Tokyo, Japan). Analogs 1 and 3 were used at 2, 5, and 10 μM.
After 1 h, the cells were exposed to 1 μM α-MSH and 200 μM IBMX and cultivated under normal cell culture conditions for 72 h. Cultured cells were fixed using a 4% paraformaldehyde solution for 40 min, washed twice with PBS, and permeabilized using 0.1% Triton X-100 for 2 min. L-DOPA solution (2 mM; 500 μL) was added to each well after washing twice with PBS. After the plate was placed for 2 h at 37 °C, the images for cell staining were acquired using a camera attached to a microscope (Motic, Hong Kong).

HaCaT cells = assay: Cytotoxicity assay on HaCaT cells (EZ-Cytox); assay type: cell-based, human; conditions: 2, 5, 10 and 20 μM, 72 h
Procedure: As keratinocytes are one of the major cells that constitute the epidermis, the effects of analogs 1–3 on HaCaT (immortalized human keratinocytes) cell viability were investigated. Analogs 1–3 were tested at concentrations of 0, 2, 5, 10, and 20 μM, and cell viability was determined 72 h after incubation.
The effect of (Z)-BBTT analogs 1–3 on HaCaT cell viability was examined using EZ-Cytox solution. HaCaT cells were seeded at a density of 1 × 10^3 in each well of a 96-well plate, and the plate was cultivated under normal cell culture conditions for 24 h. Analogs 1–3 were added to each well at concentrations of 0, 2, 5, 10, and 20 μM and then cultivated for 72 h under normal cell culture conditions. An aliquot (10 μL) of the EZ-Cytox solution was added to each well and cultivated for 2 h. Well absorbance was recorded at 450 nm using a VE microplate reader to calculate HaCaT cell viability.

[5] = ABTS cation radical scavenging activity; conditions: 100 μM, 2 min in the dark
Procedure: To measure the scavenging effects of analogs 1–12 on ABTS^+ radicals, ABTS was initially treated with potassium persulfate to yield ABTS^•+. The formed ABTS^+ radical solution was mixed with test samples (analogs 1–12 and Trolox [positive reference standard]; final concentration: 100 μM), and absorbance was measured at 732 nm after storing for 2 min in the dark to determine %ABTS^•+-scavenging ability.
ABTS^•+ was prepared by mixing equal amounts of ABTS (14 mM in H2O) and K2S2O8 (4.9 mM in H2O) and storing in the dark at 20 °C for 16 h. Prior to use, the absorbance of the prepared ABTS^•+ solution was adjusted to 0.7 ± 0.02 at 732 nm by dilution with methanol. A cosolvent (EtOH:DMSO = 10:1 [v/v]) was used to prepare solutions of the test samples (analogs 1–12 and Trolox [positive reference standard]). All test samples were used at a final concentration of 100 μM. The test sample solution (10 μL) was mixed with the adjusted ABTS^•+ solution (90 μL) in each well of a 96-well plate, and the mixture was kept in the dark at 20 °C for 2 min. The absorbance was recorded at 732 nm at 1 min intervals for 10 min using a VE microplate reader. The percentage of radical-scavenging activity was calculated using the formula % radical-scavenging activity = [(Abscontrol − Abssample)/Abscontrol] × 100, where Abssample and Abscontrol are absorbances of the sample and control, respectively.

[6] = ROS-scavenging activity (SIN-1, DCFH); conditions: 40 μM, SIN-1 10 μM
Procedure: UV-A radiation induces ROS generation substantially, and oxidative stress accelerates melanin formation in organisms. Thus, the ROS-scavenging ability of (Z)-BBTT analogs was examined to determine whether these analogs have an auxiliary ability to scavenge ROS. 3-Morpholinosydnonimine (SIN-1; 10 μM) was used as a ROS generating substance, and Trolox (40 μM) was used as a positive reference standard.
The test samples ((Z)-BBTT analogs 1–12 and Trolox [positive reference standard]) and 3-morpholinosydnonimine (SIN-1) were dissolved in DMSO and PBS, respectively. To prepare 2′,7′-dichlorodihydrofluorescein (DCFH) solution, PBS (50 mM; 4.9 mL, pH 7.4) and DCFH diacetate (2.5 mM; 0.05 mL) were mixed with esterase (15 units/10 mL; 0.05 mL). After storage for 30 min at 20 °C, the mixture was placed in the dark until further use. SIN-1 (10 µL) was added to each well of a 96-well black plate containing PBS (180 µL) and test sample (10 µL), and the plate was placed in the dark for 5 min. The prepared DCFH solution (50 µL) was added to each well of the black plate. The fluorescence of each well was recorded at 535 nm using a microplate reader (Berthold Advances GmbH & Co., Bad Wildbad, Germany) at an excitation wavelength of 485 nm. The test samples and SIN-1 were tested at final concentrations of 40 and 10 μM, respectively.

Sequence of mushroom tyrosinase (C7FF04 2-392): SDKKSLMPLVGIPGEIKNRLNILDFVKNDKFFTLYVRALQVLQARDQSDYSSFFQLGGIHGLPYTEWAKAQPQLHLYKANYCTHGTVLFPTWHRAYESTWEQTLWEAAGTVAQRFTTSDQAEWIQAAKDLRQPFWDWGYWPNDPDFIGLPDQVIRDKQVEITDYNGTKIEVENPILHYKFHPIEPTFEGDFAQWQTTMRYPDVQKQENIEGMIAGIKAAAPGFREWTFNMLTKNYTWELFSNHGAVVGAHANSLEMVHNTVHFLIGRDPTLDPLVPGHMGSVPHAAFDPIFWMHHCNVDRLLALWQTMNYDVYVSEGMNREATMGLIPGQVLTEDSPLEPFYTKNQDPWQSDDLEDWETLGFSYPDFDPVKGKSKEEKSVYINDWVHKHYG

Row | Structure (SMILES) | % DPPH radical-scavenging [1] | cytotoxicity to B16F10 cells (B16F10 cells [2]) | effect on stimulator-induced increase in melanin contents (B16F10 cells [3]; α-MSH + IBMX) | inhibition of cellular tyrosinase activity compared with kojic acid [4] | effect on stimulator-enhanced cellular tyrosinase activity [4] | relative dark area of cells compared with kojic acid at the same concentration (B16F10 cell tyrosinase) | number of cells strongly stained with melanin (B16F10 cell tyrosinase) | cytotoxicity to HaCaT cells (HaCaT cells) | % ABTS^•+ scavenging [5] | ROS-scavenging activity (SIN-1-induced ROS levels) [6] | other results
1 | O=C1O[C@H]([C@@H](O)CO)C(O)=C1O [Ascorbic acid, L-Ascorbic acid, reference compound] | 97% |  |  |  |  |  |  |  |  |  | 
2 | O=C1/C(=C/c2ccc(O)cc2)SC(=S)N1Cc1ccccc1 [Compound 1, (Z)-3-Benzyl-5-(4-hydroxybenzylidene)-2-thioxothiazolidin-4-one] |  | not cytotoxic; also recorded: no perceptible cytotoxicity | significantly decreased | more strongly than kojic acid | significantly decreased | significantly less than that of kojic acid | reduced the number of strongly stained cells in a concentration-dependent manner | no perceptible cytotoxicity |  |  | inhibitory potency relative to kojic acid (IC50 ratio) (mushroom tyrosinase): four-fold lower; stimulator-induced increased melanin content reduced by (fold) (B16F10 cells [3]; 10 μM, α-MSH 1 μM + IBMX 200 μM, stimulators alone 5.0-fold increase): 1.9 fold
3 | O=C1/C(=C/c2ccc(O)c(O)c2)SC(=S)N1Cc1ccccc1 [Compound 2, (Z)-3-Benzyl-5-(3,4-dihydroxybenzylidene)-2-thioxothiazolidin-4-one] | 95% | cytotoxic at all tested concentrations |  |  |  |  |  |  | 99% | greater ROS-scavenging potency than Trolox | 
4 | O=C1/C(=C/c2ccc(O)cc2O)SC(=S)N1Cc1ccccc1 [Compound 3, (Z)-3-Benzyl-5-(2,4-dihydroxybenzylidene)-2-thioxothiazolidin-4-one] |  | not cytotoxic; also recorded: no perceptible cytotoxicity | significantly decreased | more strongly than kojic acid | significantly decreased | significantly less than that of kojic acid | reduced the number of strongly stained cells in a concentration-dependent manner | no perceptible cytotoxicity | 98% | equipotent to that of Trolox | inhibition of melanin production compared with kojic acid at the same concentration (B16F10 cells [3]; 10 μM, α-MSH + IBMX): significantly more potently than kojic acid; melanin content compared with 10 μM kojic acid (B16F10 cells [3]; analog at 2 μM, α-MSH + IBMX): more weakly than 10 μM kojic acid
5 | COc1ccc(/C=C2\SC(=S)N(Cc3ccccc3)C2=O)cc1O [Compound 5, (Z)-3-Benzyl-5-(3-hydroxy-4-methoxybenzylidene)-2-thioxothiazolidin-4-one] | 17% |  |  |  |  |  |  |  | 71% |  | 
6 | Cc1c(C)c2c(c(C)c1O)CCC(C)(C(=O)O)O2 (centres unmarked) [Trolox, reference compound] |  |  |  |  |  |  |  |  | 99% | significantly reduced | 
